Laboratory results reported in patent US20230067929A1, “HETEROCYCLIC DERIVATIVES, PHARMACEUTICAL COMPOSITIONS AND THEIR USE IN THE TREATMENT, AMELIORATION OR PREVENTION OF CANCER” (Tolremo Therapeutics AG, priority 2018, published 2023).

Test system: A375 cells
Assay: A375 cell immunofluorescence assay (with 1 μM S1152 and 0.5 μM S1008), EC50
Assay type: cell-based
Details: 1 μM S1152 + 0.5 μM S1008, one day, ratio FL2/FL3 staining (sc-365823 antibody)
Experimental: One thousand four hundred A375 cells were seeded in each well of a 384 well microplate. One day later they were treated with 1 μM S1152 (Selleckchem) in dimethyl sulfoxide, 0.5 μM S1008 (Selleckchem) and dose ranges of invention compounds for one day in Dulbecco's Modified Eagle's Medium supplemented with 10% fetal calf serum and 2 mM (2S)-2-amino-4-carbamoylbutanoic acid. Wells were incubated with 4% polyoxymethylene (Sigma Aldrich 158127) at ambient temperature. After ten minutes, polyoxymethylene was replaced with phosphate-buffered saline. After one minute phosphate-buffered saline was replaced with 0.2% polyethylene glycol octylphenyl ether in phosphate-buffered saline. After ten minutes at ambient temperature 0.2% polyethylene glycol octylphenyl ether in phosphate-buffered saline was replaced with 1% aminoethanoic acid in phosphate-buffered saline. […] After one hour at 37° C., the solution was replaced with phosphate-buffered saline twice. Phosphate-buffered saline was replaced with 2 μg/ml A-11029 (Invitrogen) in 0.05% polyoxyethylene (20) sorbitan monolaurate in phosphate-buffered saline. […] After one hour at ambient temperature in the dark, signal in wells was measured with a Acumen Cellista. 3,8-Diamino-5-[3-(diethylmethylammonio)propyl]-6-phenylphenanthridinium diiodide-positive objects were defined in FL3 (565-600 nm) with a perimeter between 50-800 μm and a total intensity of 10000-1000000 FLU. Signal in FL2 (500-530 nm) was measured in defined objects. A normalized ratio of total ln FL2 over total ln FL3 staining was log transformed. A non-linear regression (variable slope, 4 parameters) was used to calculate EC50 values using GraphPad Prism (Version 7.0d).

EC50 [µM] | SMILES
1 to 10 | CCC(=O)N1CCCC(c2nc(Nc3cccc(F)c3)cc(-c3ccccc3)n2)C1 (stereo not drawn)
1 to 10 | CCC(=O)N1CCCC(c2nc(Nc3cccc(F)c3)cc(-c3cncnc3)n2)C1 (stereo not drawn)
> 10 | CCC(=O)N1CCCC(c2nc(Nc3cccc(F)c3)cc(-c3ccc(OC)nc3)n2)C1 (stereo not drawn)
1 to 10 | CCC(=O)N1CCCC(c2nc(Nc3cccc(F)c3)cc(-c3ccc(C(F)(F)F)nc3)n2)C1 (stereo not drawn)
> 10 | CCC(=O)N1CCCC(c2nc(Nc3cccc(F)c3)cc(-c3ccccn3)n2)C1 (stereo not drawn)
> 10 | CCC(=O)N1CCCC(c2nc(Cl)cc(Nc3ccccc3F)n2)C1 (stereo not drawn)
1 to 10 | CCC(=O)N1CCCC(c2nc(Nc3cccc(F)c3)cc(-c3cccc(O)c3)n2)C1 (stereo not drawn)
> 10 | CCC(=O)N1CCCC(c2nc(Nc3ccccc3F)cc(-c3ccncc3)n2)C1 (stereo not drawn)
1 to 10 | CCC(=O)N1CCCC(c2nc(Nc3cccc(F)c3)cc(-c3c(C)noc3C)n2)C1 (stereo not drawn)
> 10 | CCC(=O)N1CCCC(c2nc(Nc3cccc(F)c3)cc(-c3sc(CC)nc3C)n2)C1 (stereo not drawn)
> 10 | CCC(=O)N1CCCC(c2nc(Nc3cccc(F)c3)cc(-c3cnc(OC(C)C)s3)n2)C1 (stereo not drawn)
> 10 | CCC(=O)N1CCCC(c2nc(Nc3cccc(F)c3)cc(-c3ccc4ocnc4c3)n2)C1 (stereo not drawn)
> 10 | CCC(=O)N1CCCC(c2nc(Nc3cccc(F)c3)cc(-c3cnn(C(C)C)c3)n2)C1 (stereo not drawn)
> 10 | CCC(=O)N1CCCC(c2nc(Nc3cccc(F)c3)cc(-c3cncc4ccccc34)n2)C1 (stereo not drawn)
> 10 | CCC(=O)N1CCCC(c2nc(Nc3cccc(F)c3)cc(-c3ccccc3C(=O)NC)n2)C1 (stereo not drawn)
< 1 | COc1cncc(-c2cc(Nc3cccc(Cl)c3)nc(C3CCCN(C(C)=O)C3)n2)c1 (stereo not drawn)
< 1 | COc1cncc(-c2cc(Nc3cccc(C)c3)nc(C3CCCN(C(C)=O)C3)n2)c1 (stereo not drawn)
< 1 | CC(=O)N1CCCC(c2nc(Nc3cccc(C)c3)cc(-c3cncc(C)c3)n2)C1 (stereo not drawn)
< 1 | CC(=O)N1CCCC(c2nc(Nc3cccc(C)c3)cc(-c3cccnc3)n2)C1 (stereo not drawn)
< 1 | CC(=O)N1CCCC(c2nc(Nc3ccc(C)c(C)c3)cc(-c3cccnc3)n2)C1 (stereo not drawn)
> 10 | CC(=O)N1CCCC(c2nc(Nc3ccc4c(c3)CCC4)cc(-c3cccnc3)n2)C1 (stereo not drawn)
< 1 | CCc1cncc(-c2cc(Nc3cccc(F)c3)nc(C3CCCN(C(C)=O)C3)n2)c1 (stereo not drawn)

EC50 [µM] | SMILES
> 10 | CC(=O)N1CCCC(c2nc(Nc3cccc(F)c3)cc(-c3cncc(C(F)(F)F)c3)n2)C1 (stereo not drawn)
1 to 10 | CC(=O)N1CCCC(c2nc(Nc3cccc(F)c3)cc(-c3ccncc3)n2)C1 (stereo not drawn)
1 to 10 | CC(=O)N1CCCC(c2nc(Nc3cccc(F)c3)cc(-c3cnccc3C)n2)C1 (stereo not drawn)
> 10 | CC(=O)N1CCCC(c2nc(Nc3cccc(F)c3)c(C)c(-c3cccnc3)n2)C1 (stereo not drawn)
1 to 10 | COc1ccc(-c2cc(Nc3cccc(F)c3)nc(C3CCCN(C(C)=O)C3)n2)cc1 (stereo not drawn)
1 to 10 | COc1cncc(-c2cc(Nc3ccc(C)c(F)c3)nc(C3CCCN(C(C)=O)C3)n2)c1 (stereo not drawn)
< 1 | COc1cncc(-c2cc(Nc3ccccc3)nc(C3CCCN(C(C)=O)C3)n2)c1 (stereo not drawn)
1 to 10 | COc1cncc(-c2cc(Nc3ccc(Cl)cc3)nc(C3CCCN(C(C)=O)C3)n2)c1 (stereo not drawn)
1 to 10 | CC(=O)N1CCCC(c2nc(Nc3cccc(F)c3)cc(-c3cncnc3)n2)C1 (stereo not drawn)
1 to 10 | CNC(=O)c1ccc(-c2cc(Nc3cccc(F)c3)nc(C3CCCN(C(C)=O)C3)n2)cc1 (stereo not drawn)
< 1 | CC(=O)Nc1ccc(-c2cc(Nc3cccc(F)c3)nc(C3CCCN(C(C)=O)C3)n2)cc1 (stereo not drawn)
1 to 10 | COc1cccc(-c2cc(Nc3cccc(F)c3)nc(C3CCCN(C(C)=O)C3)n2)c1 (stereo not drawn)
1 to 10 | CC(=O)N1CCCC(c2nc(Nc3cccc(F)c3)cc(-c3cccs3)n2)C1 (stereo not drawn)
< 1 | CC(=O)N1CCCC(c2nc(Nc3cccc(F)c3)cc(-c3cc(C)cs3)n2)C1 (stereo not drawn)
< 1 | CC(=O)N1CCCC(c2nc(Nc3cccc(F)c3)cc(-c3scc4c3OCCO4)n2)C1 (stereo not drawn)
1 to 10 | CC(=O)N1CCCC(c2nc(Nc3cccc(F)c3)cc(-c3ccoc3)n2)C1 (stereo not drawn)
1 to 10 | CC(=O)N1CCCC(c2nc(Nc3cccc(F)c3)cc(-c3sc(C(C)C)nc3C)n2)C1 (stereo not drawn)
1 to 10 | CC(=O)N1CCCC(c2nc(Nc3cccc(F)c3)cc(-c3c(C)noc3C)n2)C1 (stereo not drawn)
< 1 | COc1csc(-c2cc(Nc3cccc(F)c3)nc(C3CCCN(C(C)=O)C3)n2)c1 (stereo not drawn)
1 to 10 | COc1cncc(-c2cc(Nc3cccc(OCCOCCOCCNC(C)=O)c3)nc(C3CCCN(C(C)=O)C3)n2)c1 (stereo not drawn)
> 10 | COc1cncc(-c2cc(Nc3ccc(OCCOCCOCCNC(C)=O)cc3)nc(C3CCCN(C(C)=O)C3)n2)c1 (stereo not drawn)
> 10 | CC(=O)N1CCCC(c2nc(Nc3cccc(F)c3)cc(-c3csc4cnccc34)n2)C1 (stereo not drawn)

EC50 [µM] | SMILES
1 to 10 | CC(=O)N1CCCC(c2nc(Nc3cccc(F)c3)cc(-c3ccnnc3)n2)C1 (stereo not drawn)
1 to 10 | CC(=O)N1CCCC(c2nc(Nc3cccc(F)c3)cc(-c3cc(Cl)cs3)n2)C1 (stereo not drawn)
1 to 10 | COc1cccc(Nc2cc(-c3cncc(OC)c3)nc(C3CCCN(C(C)=O)C3)n2)c1 (stereo not drawn)
1 to 10 | COc1ccc(Nc2cc(-c3cncc(OC)c3)nc(C3CCCN(C(C)=O)C3)n2)cc1 (stereo not drawn)
< 1 | CC(=O)N1CCCC(c2nc(Nc3cccc(F)c3)cc(-c3cccc4[nH]ccc34)n2)C1 (stereo not drawn)
1 to 10 | CC(=O)N1CCCC(c2nc(Nc3cccc(F)c3)cc(-c3cnn(CC(F)(F)F)c3)n2)C1 (stereo not drawn)
1 to 10 | CC(=O)N1CCCC(c2nc(Nc3cc(F)cc(F)c3)cc(-c3c(C)noc3C)n2)C1 (stereo not drawn)
1 to 10 | CC(=O)N1CCCC(c2nc(Nc3cccc(F)c3)cc(-c3ccc(C)nc3)n2)C1 (stereo not drawn)
< 1 | CC(=O)N1CCCC(c2nc(Nc3cc(F)cc(F)c3)cc(-c3cccnc3)n2)C1 (stereo not drawn)
1 to 10 | CC(=O)N1CCCC(c2nc(Nc3cccc(F)c3)cc(-c3ccc(C)nc3C)n2)C1 (stereo not drawn)
1 to 10 | CC(=O)N1CCCC(c2nc(Nc3cc(F)cc(F)c3)cc(-c3cncnc3)n2)C1 (stereo not drawn)
1 to 10 | CC(=O)N1CCCC(c2nc(Nc3cc(F)cc(F)c3)cc(-c3ccnnc3)n2)C1 (stereo not drawn)
< 1 | CC(=O)N1CCCC(c2nc(Nc3cccc(F)c3)cc(-c3cncc(N4CCOCC4)c3)n2)C1 (stereo not drawn)
< 1 | COc1csc(-c2cc(Nc3cccc(C)c3)nc(C3CCCN(C(C)=O)C3)n2)c1 (stereo not drawn)
1 to 10 | CC(=O)N1CCCC(c2nc(Nc3cccc(C)c3)cc(-c3c(C)noc3C)n2)C1 (stereo not drawn)
< 1 | CC(=O)N1CCCC(c2nc(Nc3cccc(C)c3)cc(-c3cncc4[nH]ccc34)n2)C1 (stereo not drawn)
> 10 | COC(=O)c1cncc(-c2cc(Nc3cccc(F)c3)nc(C3CCCN(C(C)=O)C3)n2)c1 (stereo not drawn)
1 to 10 | CC(=O)N1CCCC(c2nc(Nc3cccc(C)c3)cc(-c3ccnnc3)n2)C1 (stereo not drawn)
1 to 10 | CC(=O)N1CCCC(c2nc(Nc3cccc(C)c3)cc(-c3cncnc3)n2)C1 (stereo not drawn)
1 to 10 | CC(=O)N1CCCC(c2nc(Nc3ccccc3)cc(-c3cncnc3)n2)C1 (stereo not drawn)
< 1 | CC(=O)N1CCCC(c2nc(Nc3ccccc3)cc(-c3cncc4[nH]ccc34)n2)C1 (stereo not drawn)
< 1 | CC(=O)Nc1cncc(-c2cc(Nc3cccc(F)c3)nc(C3CCCN(C(C)=O)C3)n2)c1 (stereo not drawn)

EC50 [µM] | SMILES
1 to 10 | CC(=O)N1CCCC(c2nc(Nc3ccccc3)cc(-c3cccnc3)n2)C1 (stereo not drawn)
1 to 10 | CC(=O)N1CCCC(c2nc(Nc3cccc(F)c3)cc(-c3cnc4[nH]ccc4c3)n2)C1 (stereo not drawn)
1 to 10 | CC(=O)Nc1ccc(-c2cc(Nc3cccc(F)c3)nc(C3CCCN(C(C)=O)C3)n2)cn1 (stereo not drawn)
< 1 | CC(=O)N1C[C@H](c2nc(Nc3ccccc3)cc(-c3cncnc3)n2)CC[C@@H]1C
< 1 | CC(=O)N1C[C@H](c2nc(Nc3ccccc3)cc(-c3cncc4[nH]ccc34)n2)CC[C@@H]1C
< 1 | CNC(=O)c1cncc(-c2cc(Nc3cccc(F)c3)nc(C3CCCN(C(C)=O)C3)n2)c1 (stereo not drawn)
< 1 | COc1cncc(-c2cc(Nc3cccc(Cl)c3)nc([C@@H]3CC[C@H](C)N(C(C)=O)C3)n2)c1
1 to 10 | CCC(=O)N1CCCC(c2nc(Nc3ccc(C)cc3)cc(-c3cccnc3)n2)C1 (stereo not drawn)
> 10 | CCC(=O)N1CCCC(c2nc(Nc3ccc(OC)nc3)cc(-c3cccnc3)n2)C1 (stereo not drawn)
> 10 | CCC(=O)N1CCCC(c2nc(Nc3ccccc3OC)cc(-c3cccnc3)n2)C1 (stereo not drawn)
> 10 | CCC(=O)N1CCCC(c2nc(Nc3ncccn3)cc(-c3cccnc3)n2)C1 (stereo not drawn)
> 10 | CCC(=O)N1CCCC(c2nc(Nc3ccc(F)cc3)cc(-c3cccnc3)n2)C1 (stereo not drawn)
> 10 | CCC(=O)N1CCCC(c2nc(Nc3cccc(C(F)(F)F)c3)cc(-c3cccnc3)n2)C1 (stereo not drawn)
1 to 10 | CCC(=O)N1CCCC(c2nc(Nc3cccc(C)c3)cc(-c3cccnc3)n2)C1 (stereo not drawn)
1 to 10 | CCC(=O)N1CCCC(c2nc(Nc3ccc(OC)cc3)cc(-c3cccnc3)n2)C1 (stereo not drawn)
1 to 10 | CCC(=O)N1CCCC(c2nc(Nc3ccc(Cl)cc3)cc(-c3cccnc3)n2)C1 (stereo not drawn)
1 to 10 | CCc1cccc(Nc2cc(-c3cncc(OC)c3)nc(C3CCCN(C(C)=O)C3)n2)c1 (stereo not drawn)
1 to 10 | COc1cncc(-c2cc(Nc3cccc(C(F)F)c3)nc(C3CCCN(C(C)=O)C3)n2)c1 (stereo not drawn)
> 10 | COc1cncc(-c2cc(Nc3cccc(-n4cnnc4)c3)nc(C3CCCN(C(C)=O)C3)n2)c1 (stereo not drawn)
1 to 10 | CC(=O)N1CCCC(c2nc(Nc3cncc(C)c3)cc(-c3cccnc3)n2)C1 (stereo not drawn)
> 10 | CC(=O)N1CCCC(c2nc(Nc3ncccn3)cc(-c3cccnc3)n2)C1 (stereo not drawn)
